Measurements taken from the supplement of paper PMC10307832.

Key:
Assay in all cases: relative viability (nuclei count vs DMSO), 5 days (fraction); higher = more cells survive
OSI-027 + Luminespib = compound: COc1cccc2cc(-c3nc([C@H]4CC[C@H](C(=O)O)CC4)n4ncnc(N)c34)[nH]c12 [OSI-027] + CCNC(=O)c1noc(-c2cc(C(C)C)c(O)cc2O)c1-c1ccc(CN2CCOCC2)cc1 [Luminespib] (partner 0.01 µM)
Procedure, shortened: (§1)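 Lung cancer cell lines were pin-tool dosed in 1536-well plates on the day after seeding, with either a lone drug or a fixed anchor-drug dose plus five library-drug doses (not always all listed) in √10 steps. Nuclei were counted on 4× images after 5 days. Relative viability is the ratio of treated-well to vehicle-well nuclei counts, with each value a median of duplicate plates.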

OSI-027 + Alpelisib = compound: COc1cccc2cc(-c3nc([C@H]4CC[C@H](C(=O)O)CC4)n4ncnc(N)c34)[nH]c12 [OSI-027] + Cc1nc(NC(=O)N2CCC[C@H]2C(N)=O)sc1-c1ccnc(C(C)(C)C(F)(F)F)c1 [Alpelisib] (partner 2 µM)
Procedure, shortened: as §1

OSI-027 + Dasatinib = compound: COc1cccc2cc(-c3nc([C@H]4CC[C@H](C(=O)O)CC4)n4ncnc(N)c34)[nH]c12 [OSI-027] + Cc1nc(Nc2ncc(C(=O)Nc3c(C)cccc3Cl)s2)cc(N2CCN(CCO)CC2)n1 [Dasatinib] (partner 0.075 µM)
Procedure, shortened: as §1

Alpelisib + Luminespib = compound: Cc1nc(NC(=O)N2CCC[C@H]2C(N)=O)sc1-c1ccnc(C(C)(C)C(F)(F)F)c1 [Alpelisib] + CCNC(=O)c1noc(-c2cc(C(C)C)c(O)cc2O)c1-c1ccc(CN2CCOCC2)cc1 [Luminespib] (partner 0.01 µM)
Procedure, shortened: as §1

| Cell Line | relative viability (OSI-027 + Luminespib; first compound 0.01 µM) | relative viability (OSI-027 + Luminespib; first compound 0.03162 µM) | relative viability (OSI-027 + Luminespib; first compound 0.1 µM) | relative viability (OSI-027 + Luminespib; first compound 0.3162 µM) | relative viability (OSI-027 + Luminespib; first compound 1 µM) | relative viability (OSI-027 + Alpelisib; first compound 0.01 µM) | relative viability (OSI-027 + Alpelisib; first compound 0.03162 µM) | relative viability (OSI-027 + Alpelisib; first compound 0.1 µM) | relative viability (OSI-027 + Alpelisib; first compound 0.3162 µM) | relative viability (OSI-027 + Alpelisib; first compound 1 µM) | relative viability (OSI-027 + Dasatinib; first compound 0.01 µM) | relative viability (OSI-027 + Dasatinib; first compound 0.03162 µM) | relative viability (OSI-027 + Dasatinib; first compound 0.1 µM) | relative viability (OSI-027 + Dasatinib; first compound 0.3162 µM) | relative viability (OSI-027 + Dasatinib; first compound 1 µM) | relative viability (Alpelisib + Luminespib; first compound 0.04 µM) | relative viability (Alpelisib + Luminespib; first compound 0.1265 µM) | relative viability (Alpelisib + Luminespib; first compound 0.4 µM) | relative viability (Alpelisib + Luminespib; first compound 1.265 µM) | relative viability (Alpelisib + Luminespib; first compound 4 µM) |
| --- | --- | --- | --- | --- | --- | --- | --- | --- | --- | --- | --- | --- | --- | --- | --- | --- | --- | --- | --- | --- |
| NCI-H2087 | 0.143 | 0.166 | 0.176 | 0.133 | 0.158 | 1.12 | 1.21 | 0.947 | 0.625 | 0.398 | 0.856 | 0.937 | 0.923 | 0.611 | 0.453 | 0.176 | 0.198 | 0.174 | 0.17 | 0.159 |
| NCI-H2126 | 0.93 | 1.01 | 0.85 | 0.575 | 0.547 | 0.764 | 0.69 | 0.694 | 0.603 | 0.399 | 0.562 | 0.56 | 0.504 | 0.374 | 0.45 | 0.946 | 0.848 | 0.854 | 0.776 | 0.667 |
| NCI-H2170 | 0.844 | 0.639 | 0.565 | 0.544 | 0.176 | 0.856 | 0.888 | 0.593 | 0.688 | 0.355 | 0.635 | 0.506 | 0.506 | 0.56 | 0.315 | 0.561 | 0.875 | 1.12 | 0.575 | 0.373 |
| NCI-H2228 | 0.165 | 0.162 | 0.0954 | 0.122 | 0.111 | 0.934 | 0.808 | 0.674 |  | 0.546 | 0.506 | 0.467 | 0.568 | 0.445 | 0.24 | 0.142 | 0.132 | 0.0885 | 0.101 | 0.144 |
| NCI-H2347 | 0.283 | 0.339 | 0.604 | 0.279 | 0.288 | 1.11 | 0.899 | 0.974 | 0.717 | 0.416 | 0.281 | 0.379 | 0.205 | 0.22 | 0.268 | 0.476 | 0.632 | 0.626 | 0.503 | 0.522 |
| NCI-H2405 | 0.678 | 0.647 | 0.559 | 0.479 | 0.443 | 0.783 | 0.664 | 0.577 | 0.475 | 0.33 | 0.2 | 0.204 | 0.185 | 0.209 | 0.178 | 0.736 | 0.463 | 0.658 | 0.486 | 0.418 |
| NCI-H3122 | 0.0994 | 0.0843 | 0.054 | 0.0869 | 0.0772 | 0.711 | 0.762 | 0.657 | 0.405 | 0.284 | 0.831 | 0.844 | 0.923 | 0.631 | 0.391 | 0.077 | 0.0664 | 0.0978 | 0.0788 | 0.0851 |
| PC-3 [JPC-3] | 0.839 | 0.553 | 0.661 | 0.598 | 0.332 | 1.06 | 1.03 | 0.986 | 0.802 | 0.43 | 0.883 | 0.895 | 1.03 | 0.936 | 0.494 | 0.731 | 0.567 | 0.739 | 0.687 | 0.622 |
| PC-14 | 0.146 | 0.108 | 0.126 | 0.17 | 0.17 | 0.855 | 0.641 | 1.01 | 1.03 | 0.65 | 0.237 | 0.253 | 0.241 | 0.303 | 0.197 | 0.154 |  | 0.168 | 0.13 | 0.144 |
| RERF-LC-KJ | 1.41 | 1.09 | 1.08 | 1.09 | 0.459 | 0.698 | 0.793 | 0.641 | 0.507 | 0.361 | 0.835 | 0.776 | 0.748 | 0.557 | 0.349 | 1.32 | 1.16 | 1.36 | 0.917 | 1.03 |
| SK-LU-1 | 0.188 | 0.198 | 0.173 | 0.181 | 0.152 | 1.25 | 0.978 | 0.64 | 0.394 | 0.304 | 0.169 | 0.172 | 0.178 | 0.127 | 0.134 | 0.199 | 0.222 | 0.202 | 0.175 | 0.152 |
| SK-MES-1 | 0.75 | 0.63 | 0.731 | 0.554 | 0.227 | 0.898 | 0.841 | 0.811 | 0.534 | 0.337 | 0.293 | 0.407 | 0.295 | 0.25 | 0.247 | 0.675 | 0.561 | 0.733 | 0.527 | 0.464 |
| SW 1573 | 0.235 | 0.19 | 0.184 | 0.214 | 0.13 | 0.738 | 0.76 | 0.661 | 0.669 | 0.39 | 0.379 | 0.456 | 0.477 | 0.494 | 0.331 | 0.175 | 0.215 | 0.285 | 0.198 | 0.115 |
